Measurements published in US9458095B2, “Oligo-benzamide compounds and their use in treating cancers” (The Board of Regents of the University of Texas System, priority 2011, dated 2016).
Entries after “also recorded” stand apart in the source; their conditions may differ.

Legend:
[1] = system: ARE activity in CWR22v1 cells (ARwt and ARv7); assay: ARE-luciferase reporter in CWR22v1 cells; assay type: cell-based
Protocol: FIG. 4. Effect of T6 on basal level of ARE expression in CWR22v1 cells. CWR22v1 cells were transiently transfected with ARE-luciferase. Cells were maintained for 48 h without (EtOH) and in the presence of 100 nM of peptidomimetic or volume equivalent of vehicle (DMSO) control or 10 μM of casodex or MDV3100.

ARv7 regulated genes = assay: Q-PCR of ARv7 regulated genes; assay type: cell-based; details: data not shown
Text: Finally, confirmation of the role of T6 in modulating ARv7 driven transcription was obtained by evaluation of the gene expression of ARv7 regulated genes.

CC(C)COc1cc(C(N)=O)ccc1NC(=O)c1ccc(NC(=O)c2ccc([N+](=O)[O-])c(OCCc3ccc4ccccc4c3)c2)c(OCC(C)C)c1 [T6]
basal transcription from minimal ARE luciferase in CWR22v1 cells (driven by ARv7) ([1]; 100 nM peptidomimetic, 48 h, without androgen (EtOH)): able to suppress; also recorded: abrogated | DHT-induced transcription from minimal ARE luciferase in CWR22v1 cells ([1]; DHT): able to suppress | expression of a panel of ARv7 regulated genes (Q-PCR) (ARv7 regulated genes): able to abrogate
